# Target: T1, hyaluronidase type I-S from bovine testes (BTH; Hyal) (Bos taurus, UniProt Q2YDK3)
# T1 construct: gene SPAM1; commercial unlabeled enzyme from bovine testes
# T1 sequence (Q2YDK3 36-553): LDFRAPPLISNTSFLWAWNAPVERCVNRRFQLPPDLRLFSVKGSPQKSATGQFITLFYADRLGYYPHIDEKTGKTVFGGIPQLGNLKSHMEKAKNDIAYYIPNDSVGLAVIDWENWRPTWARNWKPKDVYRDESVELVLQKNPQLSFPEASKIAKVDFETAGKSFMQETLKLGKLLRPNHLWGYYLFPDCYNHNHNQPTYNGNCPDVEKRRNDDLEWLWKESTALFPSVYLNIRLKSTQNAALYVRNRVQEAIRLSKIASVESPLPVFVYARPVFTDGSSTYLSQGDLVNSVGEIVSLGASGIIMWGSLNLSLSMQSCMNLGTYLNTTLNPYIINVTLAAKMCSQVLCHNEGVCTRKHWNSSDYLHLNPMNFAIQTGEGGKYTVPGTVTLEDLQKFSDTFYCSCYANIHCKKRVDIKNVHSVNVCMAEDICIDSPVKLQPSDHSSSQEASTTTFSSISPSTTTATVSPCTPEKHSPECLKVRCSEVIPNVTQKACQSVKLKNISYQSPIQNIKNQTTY
# Assay: CE-UV enzymatic assay of hyaluronic acid degradation; inhibition at […] without trehalose ([…] with […] trehalose)
# Type: biochemical
# Details: read-out: Inhibition at 1 mg/mL-Equation (1) / 0% Trehalose
smiles,measurement,value
O=c1cc(-c2ccc(O)cc2)oc2cc(O[C@@H]3O[C@H](CO)[C@@H](O)[C@H](O)[C@H]3O)cc(O)c12 [apigenin-7-glucoside],inhibition at 1000 µg/mL,25 ± 5%

# Source: PMC12525580, “Impacts of Tween-20, Glycerol, and Trehalose on Hyaluronidase Activity: Insights from Microscale Thermophoresis and Capillary Electrophoresis” (Molecules, 2025)
